Results: patent US9817000B2, “Method for identifying compounds that modulate a T2R taste receptor” (The Regents of the University of California, priority 1999, dated 2017)
Like-named read-outs stand apart in the source and are kept apart here.

What was measured:
[1] = test system: Cyx taster and non-taster mouse strains; details: cited from earlier work; for taste behaviour: non-taster strains
[2] = molecular target: T1, mT2R5 coupling to Gαs, Gαi, Gαq or Gαo (Mus musculus, UniProt Q9JKT4); experiment: Tastant-induced GTPγS binding to other G-protein α-subunits with mT2R5 membranes; format: biochemical
T1 construct: infectious Bacmid containing rhodopsin tagged mT2R5 (DBA/2-allele) was produced using the Bac-to-Bac system; rhodopsin tag (rho); made in house; host or cells: insect larval cells infected with recombinant Bacmid (Bac-to-Bac); membrane preparation
T1 sequence (Q9JKT4 1-300): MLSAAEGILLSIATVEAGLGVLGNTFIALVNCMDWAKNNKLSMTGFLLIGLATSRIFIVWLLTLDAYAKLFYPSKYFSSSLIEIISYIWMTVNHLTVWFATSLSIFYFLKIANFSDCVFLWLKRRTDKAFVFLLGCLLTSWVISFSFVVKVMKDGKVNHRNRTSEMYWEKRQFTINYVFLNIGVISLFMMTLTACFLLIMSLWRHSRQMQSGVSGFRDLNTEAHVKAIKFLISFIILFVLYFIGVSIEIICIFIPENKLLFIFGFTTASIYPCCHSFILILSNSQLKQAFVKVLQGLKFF
Experimental: To investigate the selectivity of T2R-G-protein coupling, mT2R5 was chosen for study because its activation by cycloheximide recapitulates mouse taste responses. Rho-tagged mT2R5 and gustducin were prepared using a baculovirus expression system. mT2R5-containing membranes were incubated with various purified G-proteins, including gustducin, and measured tastant-induced GTP-γS binding (Hoon et al., Biochem J 309:629-636 (1995)). Specifically, infectious Bacmid containing rhodopsin tagged mT2R5 (DBA/2-allele) was produced using the Bac-to-Bac system (Lifetechnologies, MD). Insect larval cells were infected for 60 h with recombinant Bacmid and membranes were prepared as described previously (Ryba and Tirindelli, J Biol Chem, 270:6757-6767 (1995)). Peripheral proteins were removed by treatment with 8 M urea and membranes were resuspended in 10 mM HEPES pH7.5, 1 mM EDTA and 1 mM DTT. The expression of rho-mT2R5 was assessed by Western blot using mAb B6-30 and quantitated by comparison with known amounts of rhodopsin. Approximately 300 pmol of rho-mT2R5 could be obtained from 2×10^8 infected cells. […] Receptor-catalyzed exchange of GDP for GTPγS on gustducin and other G-protein α-subunits was measured in the presence of 10 nM rho-mT2R5, 100 μM GDP, and 20 μM Gβ1γ8. […]

other hT2Rs = experiment: FURA-2 [Ca2+]i imaging in control untransfected cells or cells transfected with other hT2Rs; format: cell-based, human
Experimental: To determine whether other T2Rs are also activated by bitter compounds, 11 rhodopsin-tagged human T2R receptors were assayed by individually transfecting them into HEK-293 cells expressing Gα15. Each transfected line was tested against a battery of bitter and sweet tastants, including amino acids, peptides, and other natural and synthetic compounds.

SMILES | avoidance threshold ([1]; Cyx taster strains) | taste behaviour ([1]; at 8 μM) | taste behaviour ([1]; at 1) | decrease in sensitivity ([1]; non-tasters vs taster strains) [fold] | sensitivity threshold ([1]; rodents) [µM] | coupling of mT2R5 to other G-proteins [2] | [Ca2+]i response (other hT2Rs)
C[C@@H]1C[C@@H]([C@H](O)CC2CC(=O)NC(=O)C2)C(=O)[C@@H](C)C1 [cycloheximide] | 0.25 | strongly avoid | non-tasters | ~8 | ~0.25 | no coupling | 
CC[N+](CC)(CC(=O)Nc1c(C)cccc1C)Cc1ccccc1 [denatonium] |  |  |  |  |  |  | not
